{"source": "patent EP0437336B1", "about": "“Biophosphoryl hydrazines and their use as pesticides” (priority 1990, dated 1991)", "key": {"[1]": {"test_system": "southern corn rootworm, Diabrotica undecimpunctata howardi", "assay": "Biological Method A: Corn Rootworm Screening Test (treated non-aggressive soil)", "conditions": "soil concentration giving 90% mortality, 10 days at 27°C"}, "Green Peach Aphid": {"test_system": "Green Peach Aphid", "assay": "Biological Method D: Foliar Insecticidal Activity Test, aphid test", "type": "in vivo, Myzus persicae", "set-up": "key: I = inactive at concentration listed"}, "Mexican Bean Beetle": {"test_system": "Mexican Bean Beetle", "assay": "Biological Method D: Foliar Insecticidal Activity Test, Mexican Bean Beetle test", "type": "in vivo, Epilachna varivestis", "set-up": "key to LC50 BB 96 hrs / LC50 BB 48 hrs.: I = inactive at concentration listed", "conditions": "Method D foliar test, Mexican Bean Beetle; for LC50: Epilachna varivestis"}, "[2]": {"test_system": "Japanese beetle (Popillia japonica ) eggs", "assay": "Biological Method E: Turf Grub Insecticidal Activity Test", "type": "in vivo", "conditions": "soil incorporation", "experimental": "Biological Method E: Turf Grub Insecticidal Activity Test\nThese will give soil concentrations of […] (1.6, 0.8, 0.4, and 0.2 pounds per acre), respectively.\nTen milliliters of test solution were incorporated into 250 ml of moistened soil (clay loam, 90% : humus soil, 10%) and allowed to air in an uncapped pint jar for about 2 hours. After airing, a small amount of seed mixture containing equal parts of redtop (Agrostis alba ) and white clover (Trifolium repens ) was incorporated into the soil. Two 50 ml quantities of soil were placed into dep 88.72 cm³ (3 ounce) ointment tin cans.\nTen Japanese beetle (Popillia japonica ) eggs were placed into the soil in each can and the can capped with its tined lid. Treatments were held for 23 days at 30 degrees Centigrade.\nUpon termination, the soil was sieved to isloate the grubs. The percent mortality was determined for each concentration."}, "Two-Spotted Spider Mite": {"test_system": "Two-Spotted Spider Mite", "assay": "Biological Method D: Foliar Insecticidal Activity Test, mite test", "type": "in vivo, Tetranychus urticae", "set-up": "key to LC50 TSM: I = inactive at concentration listed", "conditions": "Method D foliar test; Two-Spotted Spider Mite"}, "Boll Weevil": {"test_system": "Boll Weevil", "assay": "Biological Method D: Foliar Insecticidal Activity Test, boll weevil test", "type": "in vivo, Anthonomous grandis", "set-up": "key: I = inactive at concentration listed"}, "[3]": {"test_system": "southern corn rootworm, Diabrotica undecimpunctata howardi", "conditions": "Diabrotica undecimpunctata, in Zea mays, foliar, 336 h, read-out: foliar systemic nonagressive Method B crw % control at 0.56 kg/ha (0.5 lb/acre)"}, "[4]": {"test_system": "southern corn rootworm, Diabrotica undecimpunctata howardi", "conditions": "at-planting soil application"}, "Southern Armyworm": {"test_system": "Southern Armyworm", "assay": "Biological Method D: Foliar Insecticidal Activity Test, Southern Armyworm test", "type": "in vivo, Spodoptera eridania", "set-up": "key: I = inactive at concentration listed"}, "[5]": {"conditions": "96 hrs, read-out: LC50 BB 96 hrs"}, "[6]": {"conditions": "23 days at 30 degrees Centigrade"}}, "note": "Read-outs that look alike come from different tables or passages of the source.", "data": [{"smiles": "CCCOP(=S)(NNP(=S)(OCC)OCC(C)(C)C)OCCC", "note": "(stereo not drawn) [Compound 41, N-(O,O-dipropylthiophosphoryl) N′-(O-ethyl O-neopentylthiophosphoryl) hydrazine]", "values": [{"measurement": "primary nonagressive Method A crw LC90", "setting": "[1]", "result": 0.06, "unit": "ppm"}, {"measurement": "LC50 GPA", "setting": "Green Peach Aphid", "result": "I"}, {"measurement": "LC50", "setting": "Mexican Bean Beetle; 48 hrs, read-out: LC50 BB 48 hrs.", "result": 62, "unit": "µg/mL"}, {"measurement": "LC50", "setting": "Mexican Bean Beetle; [5]", "result": 78, "unit": "µg/mL"}, {"measurement": "LC95", "setting": "[2]; [6]", "result": "< 0.22", "unit": "kg/ha"}, {"measurement": "LC95", "setting": "[2]; 23 days, value in brackets", "result": "< 0.2", "unit": "pounds per acre"}, {"measurement": "LC50 TSM", "setting": "Two-Spotted Spider Mite", "result": "I"}, {"measurement": "LC50 BW 48 hrs", "setting": "Boll Weevil", "result": "I"}, {"measurement": "LC50 BW 96 hrs", "setting": "Boll Weevil", "result": "I"}, {"measurement": "pest or weed control at 560 g/ha", "setting": "[3]", "result": 31, "unit": "%"}, {"measurement": "secondary aggressive Method C crw LC50", "setting": "[4]; rated 17 days post-infestation", "result": 0.3, "unit": "kg/ha"}, {"measurement": "secondary aggressive Method C crw LC50", "setting": "[4]; value in brackets", "result": 0.27, "unit": "lb/acre"}, {"measurement": "LC50 AW 48 hrs", "setting": "Southern Armyworm", "result": "I"}, {"measurement": "LC50 AW 96 hrs", "setting": "Southern Armyworm", "result": "I"}]}, {"smiles": "CCOP(=S)(NNP(=S)(OCC)OC(C)C)OCC(C)(C)C", "note": "(stereo not drawn) [Compound 46, N-(O-ethyl O-isopropylthiophosphoryl) N′-(O-ethyl O-neopentylthiophosphoryl) hydrazine]", "values": [{"measurement": "primary nonagressive Method A crw LC90", "setting": "[1]", "result": 0.08, "unit": "ppm"}, {"measurement": "LC50 GPA", "setting": "Green Peach Aphid", "result": "I"}, {"measurement": "LC50", "setting": "Mexican Bean Beetle; [5]", "result": 45, "unit": "µg/mL"}, {"measurement": "LC50 BB 48 hrs.", "setting": "Mexican Bean Beetle; 48 hrs", "result": "I"}, {"measurement": "LC95", "setting": "[2]; [6]", "result": "< 0.22", "unit": "kg/ha"}, {"measurement": "LC95", "setting": "[2]; 23 days, value in brackets", "result": "< 0.2", "unit": "pounds per acre"}, {"measurement": "LC50 TSM", "setting": "Two-Spotted Spider Mite", "result": "I"}, {"measurement": "LC50 BW 48 hrs", "setting": "Boll Weevil", "result": "I"}, {"measurement": "LC50 BW 96 hrs", "setting": "Boll Weevil", "result": "I"}, {"measurement": "secondary aggressive Method C crw LC50", "setting": "[4]; rated 17 days post-infestation", "result": 0.34, "unit": "kg/ha"}, {"measurement": "secondary aggressive Method C crw LC50", "setting": "[4]; value in brackets", "result": 0.30, "unit": "lb/acre"}, {"measurement": "LC50 AW 48 hrs", "setting": "Southern Armyworm", "result": "I"}, {"measurement": "LC50 AW 96 hrs", "setting": "Southern Armyworm", "result": "I"}]}]}
